Assay results from patent US9932332B2, “FXR (NR1H4) modulating compounds” (Gilead Sciences, Inc., priority 2016, dated 2018).

Target: FXR ligand binding domain (Homo sapiens (Human), UniProt Q96RI1)
Experiment: Mammalian one hybrid (M1H) Gal4 reporter gene assay in HEK293 cells
Type: cell-based
Details: Gal4-FXR-LBD luciferase reporter, 16 h incubation
Procedure: Determination of a ligand mediated Gal4 promoter driven transactivation to quantify ligand binding mediated activation of FXR was performed as follows: The cDNA part encoding the FXR ligand binding domain was cloned into vector pCMV-BD (Stratagene) as a fusion to the yeast GAL4 DNA binding domain under the control of the CMV promoter. The amino acid boundaries of the ligand binding domain were amino acids 187-472 of Database entry NM_005123 (RefSeq). The plasmid pFR-Luc (Stratagene) was used as the reporter plasmid, containing a synthetic promoter with five tandem repeats of the yeast GAL4 binding sites, driving the expression of the Photinus pyralis (American firefly) luciferase gene as the reporter gene. In order to improve experimental accuracy the plasmid pRL-CMV (Promega) was cotransfected. pRL-CMV contains the constitutive CMV promoter, controlling the expression of the Renilla reniformis luciferase. […] Cells were incubated for additional 16 h before firefly and renilla luciferase activities were measured sequentially in the same cell extract using a Dual-Light-Luciferase-Assay system (Dyer et al., Anal. Biochem. 2000, 282, 158-161). […]

FXR ligand binding domain, sequence (Q96RI1 other isoform, or with tags, fused parts or gaps): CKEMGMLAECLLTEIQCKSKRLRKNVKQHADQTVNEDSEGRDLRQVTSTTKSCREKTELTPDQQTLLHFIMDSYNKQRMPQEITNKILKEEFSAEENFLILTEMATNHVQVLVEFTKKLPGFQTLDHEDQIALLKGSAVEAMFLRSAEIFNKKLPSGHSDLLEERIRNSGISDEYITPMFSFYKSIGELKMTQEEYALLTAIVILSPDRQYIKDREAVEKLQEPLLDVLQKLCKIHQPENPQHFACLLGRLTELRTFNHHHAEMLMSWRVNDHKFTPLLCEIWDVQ

EC50 | Compound
216 nM | O=C(O)c1cc(F)c2nc(C3(O)C4COCC3CC(OCc3c(-c5c(Cl)cccc5Cl)noc3C3CC3)C4)sc2c1 [Example 1, 2-((1R,5S,9S)-7-((5-Cyclopropyl-3-(2,6-dichlorophenyl)isoxazol-4-yl)methoxy)-9-hydroxy-3-oxabicyclo[3.3.1]nonan-9-yl)-4-fluorobenzo[d]thiazole-6-carboxylic acid]
175 nM | O=C(O)c1ccc2nc(C3(O)C4COCC3CC(OCc3c(-c5c(Cl)cccc5Cl)noc3C3CC3)C4)sc2c1 [Example 2, 2-((1R,5S,9S)-7-((5-Cyclopropyl-3-(2,6-dichlorophenyl)isoxazol-4-yl)methoxy)-9-hydroxy-3-oxabicyclo[3.3.1]nonan-9-yl)benzo[d]thiazole-6-carboxylic acid]
